From ChEMBL document CHEMBL1146148, “Hydroxyl radical scavenging by edaravone derivatives: Efficient scavenging by 3-methyl-1-(pyridin-2-yl)-5-pyrazolone with an intramolecular base” (Bioorg Med Chem Lett, 2006)

assay: Hydroxyl radical scavenging activity by ESR spin-trapping method; type: functional

| SMILES | IC50 [µM] |
| --- | --- |
| CC1=NN(c2ccccc2)C(=O)C1c1ccccc1 (stereo not drawn) | 790 |
| CC1=NN(c2ccccn2)C(=O)C1 | 18 |
| CC1=NN(c2ccccc2)C(=O)C1C1CC1 (stereo not drawn) | 720 |
| CC1=NN(c2ccccc2)C(=O)C1C(=O)c1ccccc1 (stereo not drawn) | 610 |
| CC1=NN(c2ccc([N+](=O)[O-])cc2)C(=O)C1 | 500 |
| O=C1CC(C(F)(F)F)=NN1c1ccccc1 | 810 |
| CC1=NN(c2ccccc2)C(=O)C1 [EDARAVONE] | 250 |
| O=C(NC1=NN(c2ccccc2)C(=O)C1)Oc1ccccc1 | 380 |
